From BindingDB's records for patent US12509454 (Ideaya Biosciences, 2025)

Biological target: T1, DNA polymerase theta [1-899] (UniProt O75417)
T1 construct: 1-899
Assay: ATPase activity of Pol theta (1-899) was determined using the assay
Procedure: Pol Theta ATPase activity was determined by measuring the rate of ATP turn over in a NADH oxidation-coupled enzymatic assay. 10-point dilution series of compounds were used in a 384 well format for the inhibition assays. Pol theta (1-899) (10 nM) in assay buffer (20 mM Tris HCl (pH 7.80), 80 mM KCl, 10 mM MgCl2, 1 mM DTT, 0.01% BSA, 0.01% Tween, 5% glycerol) was transferred to the test wells (20 μL), except the low control wells (20 μL of assay buffer was added to the low control wells). The plate was then incubated at room temperature for 15 min. An equal volume (20 μL) of 100 μM ATP, 300 nM dT50 (single-stranded DNA (ssDNA) containing 50 thymine bases), 300 μM NADH, 6 mM PEP, 10 U/mL lactate dehydrogenase and 20 U/mL pyruvate kinase in assay buffer was added to all the test wells. The plate was then centrifuged at 1000 rpm for 1 min. The reaction was monitored for 30 min by measuring absorbance (λ=340 nm) in a Tecan Spark multimode plate reader every minute. The high control (DMSO with enzyme) with low absorbance intensity represents no inhibition of ATPase reaction while the low control (DMSO with buffer) with high absorbance intensity represents full inhibition of ATPase activity. Slope of the reaction progress curves were used to calculate the rate of ATP hydrolysis.

T1 sequence (O75417 1-899): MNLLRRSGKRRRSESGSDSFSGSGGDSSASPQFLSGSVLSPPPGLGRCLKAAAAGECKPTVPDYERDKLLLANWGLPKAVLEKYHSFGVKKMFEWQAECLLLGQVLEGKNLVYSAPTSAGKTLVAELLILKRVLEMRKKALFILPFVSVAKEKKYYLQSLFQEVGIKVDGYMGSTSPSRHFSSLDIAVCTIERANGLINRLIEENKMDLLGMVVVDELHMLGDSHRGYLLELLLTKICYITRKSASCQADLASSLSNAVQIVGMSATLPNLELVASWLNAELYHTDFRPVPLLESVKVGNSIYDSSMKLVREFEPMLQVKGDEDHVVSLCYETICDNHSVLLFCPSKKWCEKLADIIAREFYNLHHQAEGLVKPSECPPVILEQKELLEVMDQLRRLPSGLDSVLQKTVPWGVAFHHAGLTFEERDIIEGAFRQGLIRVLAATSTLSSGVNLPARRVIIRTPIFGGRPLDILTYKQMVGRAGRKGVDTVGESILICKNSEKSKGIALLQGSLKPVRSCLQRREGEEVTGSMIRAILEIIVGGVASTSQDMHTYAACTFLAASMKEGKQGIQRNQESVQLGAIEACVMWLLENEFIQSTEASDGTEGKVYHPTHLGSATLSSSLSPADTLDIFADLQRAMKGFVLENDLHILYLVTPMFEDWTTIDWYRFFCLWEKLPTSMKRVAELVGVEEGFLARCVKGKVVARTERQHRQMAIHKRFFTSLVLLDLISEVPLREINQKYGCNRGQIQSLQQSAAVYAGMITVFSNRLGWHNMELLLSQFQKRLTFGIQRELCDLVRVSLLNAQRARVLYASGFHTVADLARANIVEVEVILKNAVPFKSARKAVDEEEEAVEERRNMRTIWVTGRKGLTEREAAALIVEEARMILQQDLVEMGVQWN

Row | IC50 | Compound
1 | < 200 nM | O=C(Nc1nnc(OCc2ccc(Cl)cc2)s1)c1ccncc1N1CCO[C@@H]2C[C@@H]21 (mixture of isomers) [US12509454, Compound 178]
2 | > 1000 nM | O=C(Nc1nnc(OCc2ccc(Cl)cc2)s1)c1cccnc1N1CCC(O)CC1 [US12509454, Compound 20]
3 | > 1000 nM | CC(C)(O)C#Cc1ccc(C(=O)Nc2nnc(OCc3ccc(Cl)cc3)s2)c(N2CCOCC2)n1 [US12509454, Compound 29]
4 | < 200 nM | N#Cc1cc(-c2c(F)cccc2OC(F)F)c(C(=O)Nc2nnc(OCc3ccc(Cl)cn3)s2)cn1 [US12509454, Compound 193]
